This is an account of results in publication PMC11781080 (RSC Advances, 2025).

In test [1] the test system is A549 cells (EGFR wild-type non-small-cell lung cancer). The test is described as follows: MTT cell viability assay, A549 cells. It counts as cell-based. The note with it: Homo sapiens, A549, 72 h, read-out: IC50 A549. For orientation: Formazan colour is commonly taken as a measure of viable cells.
In test [2] the test system is Vero cells (normal kidney epithelial cell). As to the kind of experiment: MTT cell viability assay, Vero cells. It counts as cell-based. The note with it: read-out: IC50 Vero, 72 h, mean ± S.E.M., n = 3.

As to `CN(C)C/C=C/C(=O)Nc1cc2c(Nc3ccc(F)c(Cl)c3)ncnc2cc1O[C@H]1CCOC1` [Afatinib], the IC50 (commonly the point on the concentration scale where inhibition reaches its midpoint) in test [1] was determined as 13.1 ± 0.8 µM; in test [2] it was 5.77 ± 1.59 µM.
